Source: PubChem BioAssay (NCI)
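Protocol summary: plate cells (96-well), add compound at 5 concentrations, incubate 48 h, interpolate endpoints linearly. GI50 = concentration required for 50% inhibition of growth. The concentration for full growth arrest is given as TGI.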

Experiments:
Assay in all cases: DTP human tumour cell line panel, 48 h
HOP-92 NSCLC = system: HOP-92 NSCLC
786-0 renal = system: 786-0 renal
CCRF-CEM leukemia = system: CCRF-CEM leukemia
A498 renal = system: A498 renal
ACHN renal = system: ACHN renal
HCT-116 colon = system: HCT-116 colon
HOP-62 NSCLC = system: HOP-62 NSCLC
SF-539 CNS = system: SF-539 CNS
UACC-257 melanoma = system: UACC-257 melanoma
OVCAR-4 ovarian = system: OVCAR-4 ovarian

Row | SMILES | TGI (HOP-92 NSCLC) | TGI (786-0 renal) | TGI (CCRF-CEM leukemia) | TGI (A498 renal) | TGI (ACHN renal) | TGI (HCT-116 colon) | TGI (HOP-62 NSCLC) | TGI (SF-539 CNS) | TGI (UACC-257 melanoma) | TGI (OVCAR-4 ovarian) | GI50 (HOP-92 NSCLC) | GI50 (786-0 renal) | GI50 (CCRF-CEM leukemia) | GI50 (A498 renal) | GI50 (ACHN renal) | GI50 (HCT-116 colon) | GI50 (HOP-62 NSCLC) | GI50 (SF-539 CNS) | GI50 (UACC-257 melanoma) | GI50 (OVCAR-4 ovarian)
1 | Clc1ccc(CCN2CCOCC2)c(Cl)c1 | > 100 µM | > 100 µM | > 100 µM | > 100 µM | > 100 µM | > 100 µM | > 100 µM | > 100 µM | > 100 µM | > 100 µM | – | – | – | – | – | – | – | – | – | –
2 | NC(=O)c1ccc(-c2c3ccccc3cc3c2ccc2ccccc23)cc1 | 25.8 µM | 14.8 µM | > 100 µM | 24 µM | 62 µM | 10.8 µM | 23.2 µM | 15.5 µM | > 100 µM | 29.7 µM | 6.39 µM | 3.64 µM | 5.83 µM | 3.71 µM | 6.62 µM | 2.36 µM | 4.28 µM | 3.59 µM | 12.1 µM | 5.79 µM
3 | OCC1CC2CC1C1(C2)OCCO1 (stereo not given) | > 100 µM | > 100 µM | > 100 µM | > 100 µM | > 100 µM | > 100 µM | > 100 µM | > 100 µM | > 100 µM | > 100 µM | – | – | – | – | – | – | – | – | – | –
4 | N#CC(/C(=N\NC(N)=S)C(=O)NC1C2CC3CC(C2)CC1C3)c1ccc(Cl)cc1 (stereo not given) | > 100 µM | > 100 µM | > 100 µM | > 100 µM | > 100 µM | > 100 µM | > 100 µM | > 100 µM | > 100 µM | > 100 µM | – | – | – | – | – | – | – | – | – | –
5 | c1ccc(CN(Cc2ccccn2)Cn2cccn2)nc1 | > 100 µM | > 100 µM | > 100 µM | > 100 µM | > 100 µM | 63.7 µM | > 100 µM | > 100 µM | > 100 µM | > 100 µM | – | – | – | – | – | – | – | – | – | –
6 | CC(C)=CCC[C@](C)(O)[C@H]1CC[C@]2(C)[C@@H]1CC[C@@H]1[C@@]3(C)CC[C@H](OC(=O)CCC(=O)O)C(C)(C)[C@@H]3CC[C@]12C | 35.9 µM | > 100 µM | 58 µM | > 100 µM | > 100 µM | > 100 µM | > 100 µM | 57.8 µM | > 100 µM | > 100 µM | 14.5 µM | > 100 µM | 12.1 µM | 80.4 µM | 28.3 µM | 56.5 µM | 37.6 µM | 19.7 µM | 36.9 µM | 27.6 µM
7 | C1CCN2CC34CC(CC5CCCN(C6CCCC3N6)C54)C2C1 (stereo not given) | > 100 µM | > 100 µM | > 100 µM | > 100 µM | > 100 µM | > 100 µM | > 100 µM | > 100 µM | > 100 µM | > 100 µM | – | – | – | – | – | – | – | – | – | –
8 | COCCOCCOCCOCCOc1ccc2c(c1)C(=O)c1nc3ncccc3c(=O)n1-2 | 29.5 µM | 9.46 µM | 7.4 µM | 3.16 µM | 8.19 µM | 4.46 µM | 2.18 µM | 1.71 µM | 2.38 µM | 4.23 µM | 8.23 µM | 2.17 µM | 2.43 µM | 1.77 µM | 2.64 µM | 1.56 µM | 0.744 µM | 0.551 µM | 0.763 µM | 1.74 µM
9 | COc1ccc(-c2nc(N)nc(-c3cc(C)ccc3O)c2Cl)cc1 | > 100 µM | > 100 µM | > 100 µM | > 100 µM | > 100 µM | > 100 µM | > 100 µM | > 100 µM | > 100 µM | 53.3 µM | – | – | – | – | – | – | – | – | – | –
10 | COc1cc(C=NCC(=O)CSC(c2ccccc2)c2ccccc2)cc(OC)c1OC | > 100 µM | > 100 µM | > 100 µM | 38 µM | > 100 µM | > 100 µM | > 100 µM | > 100 µM | 60.5 µM | 64.4 µM | 8.59 µM | 24.6 µM | 5.41 µM | 5.98 µM | 26.4 µM | 14.1 µM | 33.2 µM | 33.1 µM | 13.9 µM | 5.18 µM
11 | O=C(O)C1C2CC3CC2CC31 (stereo not given) | > 100 µM | > 100 µM | > 100 µM | > 100 µM | > 100 µM | > 100 µM | > 100 µM | > 100 µM | > 100 µM | > 100 µM | – | – | – | – | – | – | – | – | – | –
12 | Cc1cc(C#Cc2ccccc2)ccc1-n1c(/C=C/c2ccc(O)cc2)nc2ccccc2c1=O | 7.26 µM | 28.7 µM | > 100 µM | 7.71 µM | 8.52 µM | 11 µM | > 100 µM | > 100 µM | 56.3 µM | 22.7 µM | 2.5 µM | 3.65 µM | 3.26 µM | 1.56 µM | 2.46 µM | 2.66 µM | 13.1 µM | 5.65 µM | 4.18 µM | 3.17 µM
13 | Cc1ccc(C)c(NC(=O)CCc2n[nH]c(=S)o2)c1 | > 100 µM | > 100 µM | > 100 µM | > 100 µM | > 100 µM | > 100 µM | > 100 µM | > 100 µM | > 100 µM | > 100 µM | – | – | – | – | – | – | – | – | – | –
14 | O=C(Nc1ccc(-c2nc3ccc(NC(=O)c4ccc(Cl)cc4)cc3[nH]2)cc1)c1ccc(Cl)cc1 | 11 µM | 2.26 µM | 4.41 µM | 16.8 µM | 21.1 µM | 10.8 µM | 9.07 µM | 6.22 µM | 24.1 µM | 3.47 µM | 2.68 µM | 0.308 µM | 0.433 µM | 3.56 µM | 8.65 µM | 2.71 µM | 2.59 µM | 0.0709 µM | 11.5 µM | 1.76 µM
15 | Cc1ccc(NC(=O)CCC(=O)C(C#N)c2ccc(Cl)cc2)cc1C (stereo not given) | > 100 µM | > 100 µM | > 100 µM | > 100 µM | > 100 µM | > 100 µM | > 100 µM | > 100 µM | > 100 µM | > 100 µM | – | – | – | – | – | – | – | – | – | –
16 | S=C1OC2C3C4CC5C3C(O1)C1C5C4C21 (stereo not given) | > 100 µM | > 100 µM | > 100 µM | > 100 µM | > 100 µM | > 100 µM | > 100 µM | > 100 µM | > 100 µM | > 100 µM | – | – | – | – | – | – | – | – | – | –
17 | O=C(O)CCN1C(=O)/C(=C/C(Cl)=C/c2ccccc2)SC1=S | 12.5 µM | 10.5 µM | 8.25 µM | 3.62 µM | 4.76 µM | 5.06 µM | 13.3 µM | 7.12 µM | 7.81 µM | 18 µM | 4.35 µM | 3.23 µM | 1.87 µM | 1.97 µM | 1.93 µM | 1.82 µM | 3.74 µM | 2.67 µM | 1.96 µM | 4.79 µM
